Source: patent US8906115B2, “Method for the antimicrobial finishing of textiles and fibers” (Sanitized AG, priority 2006, dated 2014)

Test system: Staphylococcus aureus 6538 P
Experiment: antibacterial effect / germ reduction of finished textiles after washing, test standard not stated
Type: cell-based
Settings: less pronounced than tannic acid, gallic acid, stearic acid or L-phenylalanine
Protocol: The two samples finished in this way are washed at 40° C. and dried between the washing cycles. After 20 and 30 washing cycles, the antibacterial effect against Staphylococcus aureus 6538 P is tested.
In an experimental finishing. 14 kilograms of an orange colored tricot made of polyester/polyamide/elastan are prewashed at 60° C., then 280 grams of L-phenylalanine and 110 liters of water are added. Allow to prerun for 10 minutes, heated to 60° C. at 3° C. per minute and left to run for 15 minutes at 60° C. 80 grams of Sanitized T 99-19 in 2 liters of water are added and left to run for a further 30 minutes at 60° C. The liquor is cooled to 35° C. and then drawn off. 40 liters of water for rinsing are added, left to run for two minutes and the rinse water is drawn off. The textile is discharged via press-off rolls and dried on a tenter at 120° C. After 50 washing cycles in accordance with EN ISO 6330 (6A), washed with the colorfast detergent according to ECE 77, a sample achieves a germ count reduction of factor 100 (log reduction=2.0) compared with the inoculum.

Row | Compound | antimicrobial effect after washing when used as primer (P), in words
1 | CCCCCCCCCCCCCCCCCCN [octadecylamine] | improvement in the antimicrobial effect after washing
2 | O=C(O)c1ccc(C(=O)O)cc1 [terephthalic acid, benzene-1,4-dicarboxyolic acid] | improvement in the antimicrobial effect after washing
